pIC50: −log10 of the molar value. Read-outs that look alike come from different tables or passages of the source.
Legend:
[1] = molecular target: p38 MAP kinase (unphosphorylated p38-alpha kinase) (Homo sapiens, UniProt Q16539); test: P38 MAP kinase binding assay (fluorescence competition with SKF 86002 probe); conditions: for Time-dependent: time-dependent if IC50 values decrease with the reaction time (more than two-fold in four hours)
Method: The reaction was initiated by addition of the enzyme. […] By comparison of rfu (relative fluorescence unit) values with that of a control (in the absence of an inhibitor), the percentage of inhibition at each concentration of the inhibitor was calculated. IC50 value for the inhibitor was calculated from the % inhibition values obtained at a range of concentrations of the inhibitor using Prism. When time-dependent inhibition was assessed, the plate was read at multiple reaction times such as 0.5, 1, 2, 3, 4 and 6 hours. The IC50 values were calculated at the each time point. An inhibition was assigned as time-dependent if the IC50 values decrease with the reaction time (more than two-fold in four hours).

[2] = molecular target: T1, phospho p-38 alpha kinase (Homo sapiens, UniProt Q16539); test: P-38 alpha kinase assay (spectrophotometric, pyruvate kinase/lactate dehydrogenase coupled); type: biochemical; conditions: for pIC50: rates from […] to 2 h time frame
T1 construct: purchased Panvera

[3] = read-out: % Inhibition @ concentration, Table 3

T1 sequence (Q16539 whole entry): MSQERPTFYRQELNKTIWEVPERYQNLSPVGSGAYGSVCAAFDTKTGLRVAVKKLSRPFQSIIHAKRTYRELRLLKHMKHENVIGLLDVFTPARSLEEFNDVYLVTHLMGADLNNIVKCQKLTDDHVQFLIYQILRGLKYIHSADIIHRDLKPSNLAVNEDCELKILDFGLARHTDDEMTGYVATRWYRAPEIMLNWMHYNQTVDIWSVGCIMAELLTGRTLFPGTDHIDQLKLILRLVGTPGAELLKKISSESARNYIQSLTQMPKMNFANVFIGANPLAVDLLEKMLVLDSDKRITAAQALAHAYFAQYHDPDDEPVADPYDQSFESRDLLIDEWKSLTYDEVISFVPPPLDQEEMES
Sequence of p38 MAP kinase (unphosphorylated p38-alpha kinase) (Q16539 whole entry): as above

pIC50 ([2]; Table 3) | SMILES | other results
– | CC(C)(C)c1cc(NC(=O)Nc2cccc3ccccc23)n(-c2ccc(CN)cc2)n1 [Example 45, 1-{3-tert-butyl-1-[4-(aminomethyl)phenyl]-1H-pyrazol-5-yl}-3-(naphthalen-1-yl)urea] | pIC50 ([1]; read-out: IC50): 5.73; Time-dependent [1]: No; pIC50 ([2]; Table 2): 6.32
– | CC1(C(=O)O)CC2(C)CC(C)(C1)C(=O)N(Cc1cccc(-n3nc(C(C)(C)C)cc3NC(=O)Nc3ccc(Cl)cc3)c1)C2=O (stereo not shown) [Example 12] | pIC50 [1]: ~5.00; Time-dependent [1]: No; inhibition at 10 µM ([2]; read-out: % inhibition @ concentration, Table 2): 70%
– | COc1cccc(-n2nc(C)cc2NC(=O)Nc2cccc(C(F)(F)F)c2)c1 [Example 338, 1-(1-(3-methoxyphenyl)-3-methyl-1H-pyrazol-5-yl)-3-(3-(trifluoromethyl)phenyl)urea] | inhibition at 2 µM ([2]; read-out: % Inhibition @ concentration, Table 3, at 2 uM): 7%
– | CCOC(=O)CCc1cccc(-n2nc(C(C)(C)C)cc2NC(=O)c2ccc3ccccc3c2)c1 [Example 154, 3-(3-{3-t-butyl-5-[(naphthalene-2-carbonyl)-amino]-pyrazol-1-yl}-phenyl)-propionic acid ethyl ester] | inhibition at 10 µM [2, 3]: 21%
– | COc1cccc(-n2nc(C(C)(C)C)cc2NC(=O)Nc2cccnc2)c1 [Example 328, 1-(3-t-butyl-1-(3-methoxyphenyl)-1H-pyrazol-5-yl)-3-(pyridin-3-yl)urea] | inhibition at 10 µM [2, 3]: 68%
6.74 | COc1cccc(-n2nc(C(C)(C)C)cc2NC(=O)Nc2cccc(Cl)c2)c1 [Example 311, 1-(3-t-butyl-1-(3-methoxyphenyl)-1H-pyrazol-5-yl)-3-(3-chlorophenyl)urea] | –
6.11 | CC(C)(C)c1cc(NC(=O)Nc2ccccc2)n(-c2ccc(O)cc2)n1 [Example 522, 1-(3-t-butyl-1-(4-hydroxyphenyl)-1H-pyrazol-5-yl)-3-phenylurea] | –
6.57 | COc1cccc(-n2nc(C(C)(C)C)cc2NC(=O)Nc2cccc(F)c2F)c1 [Example 345, 1-[3-t-butyl-1-(3-methoxy-phenyl)-1H-pyrazol-5-yl]-3-(2,3-difluorophenyl)urea] | –
6.60 | COc1cccc(-n2nc(C(C)(C)C)cc2NC(=O)Nc2cccc(C)c2)c1 [Example 313, 1-(3-t-butyl-1-(3-methoxyphenyl)-1H-pyrazol-5-yl)-3-m-tolylurea] | –
6.10 | CC(C)(C)c1cc(NC(=O)Nc2ccc(Cl)cc2)n(-c2cccc(CN3C(=O)CCC3=O)c2)n1 [Example 320, 1-(3-t-butyl-1-{3-[(2,5-dioxopyrrolidin-1-yl)methyl]phenyl}-1H-pyrazol-5-yl)-3-(4-chlorophenyl)urea] | –
7.24 | CC(C)(C)c1cc(NC(=O)Nc2cccc3ccccc23)n(-c2cccc(CNC(=O)N3CCCC3)c2)n1 [Example 486, 1-(3-t-butyl-1-{3-[(pyrrolidine-1-carboxamido)methyl]phenyl}-1H-pyrazol-5-yl)-3-(naphthalen-1-yl)urea] | –
6.32 | CC(C)(C)c1cc(NC(=O)Nc2cccc(Br)c2)n(-c2cccc(CCN)c2)n1 [Example 376, 1-{1-[3-(2-aminoethyl)phenyl]-3-t-butyl-1H-pyrazol-5-yl}-3-(3-bromophenyl)urea] | –
6.64 | CC(C)(C)c1cc(NC(=O)Nc2ccc(Cl)cc2)n(-c2cccc(CN3C(=O)NC(=O)C3=O)c2)n1 [Example 481, 1-{3-t-butyl-2-{3-[(2,4,5-trioxoimidazolidin-1-yl)methyl]phenyl}-1H-pyrazol-3-yl}-3-(4-chlorophenyl)urea] | –
5.61 | COc1cccc(-n2nc(-c3ccccc3)cc2NC(=O)Nc2cccc(C(F)(F)F)c2)c1 [Example 333] | –
– | COc1cccc(-n2nc(C(C)(C)C)cc2NC(=O)Nc2cccc(C(F)(F)F)c2)c1 [Example 315, 1-(3-t-butyl-1-(3-methoxyphenyl)-1H-pyrazol-5-yl)-3-(3-(trifluoromethyl)phenyl)urea] | inhibition at 10 µM [2, 3]: 54%
6.40 | CC(C)(C)c1cc(NC(=O)Nc2ccc(Cl)cc2)n(-c2cccc(C(N)=O)c2)n1 [Example 393, 1-[3-t-butyl-1-(3-carbamoylphenyl)-1H-pyrazol-5-yl]-3-(4-chlorophenyl)urea] | –

pIC50 ([2]; Table 3) | SMILES | other results
6.30 | CC(C)(C)c1cc(NC(=O)Nc2cccc3ccccc23)n(-c2ccc3c(c2)CNCC3)n1 [Example 509, 1-[3-t-butyl-1-(1,2,3,4-tetrahydroisoquinolin-7-yl)-1H-pyrazol-5-yl]-3-(naphthalen-1-yl)urea] | –
– | COc1ccc(-n2nc(C(C)(C)C)cc2NC(=O)Nc2cccc(F)c2F)cc1 [Example 415, 1-[3-t-butyl-1-(4-methoxyphenyl)-1H-pyrazol-5-yl]-3-(2,3-difluorophenyl)urea] | inhibition at 0.1 µM [2, 3]: 28%; inhibition at 1 µM [2, 3]: 69%
– | CC(C)(C)c1cc(NC(=O)Nc2ccc(Cl)cc2)n(-c2cccc(CN)c2)n1 [Example 390, 1-{1-[3-(aminomethyl)phenyl]-3-t-butyl-1H-pyrazol-5-yl}-3-(4-chloro-phenyl)urea] | inhibition at 0.1 µM [2, 3]: 24%; inhibition at 1 µM [2, 3]: 63%
7.83 | CCOC(=O)Cc1ccc(-n2nc(C(C)(C)C)cc2NC(=O)Nc2ccc(Cl)cc2)cc1 [Example 420, ethyl 2-(4-{3-t-butyl-5-[3-(4-chlorophenyl)ureido]-1H-pyrazol-1-yl}phenyl)acetate] | –
– | COc1cccc(-n2nc(C(C)(C)C)cc2NC(=O)Nc2cccc(C#N)c2)c1 [Example 325, 1-(3-t-butyl-1-(3-methoxyphenyl)-1H-pyrazol-5-yl)-3-(3-cyanophenyl)urea] | inhibition at 10 µM [2, 3]: 54%
6.03 | CC(Cc1ccc(-n2nc(C(C)(C)C)cc2NC(=O)Nc2ccc(Cl)cc2)cc1)C(=O)O (stereo not shown) [Example 430, 3-(4-{3-t-butyl-5-[3-(4-chlorophenyl)ureido]-1H-pyrazol-1-yl}phenyl)-2-methylpropanoic acid] | –
6.39 | CC(C)(C)c1cc(NC(=O)Nc2ccc3c(c2)OCO3)n(-c2ccc3c(c2)CNCC3)n1 [Example 513, 1-benzo[d][1,3]dioxol-5-yl-3-[3-t-butyl-1-(1,2,3,4-tetrahydroisoquinolin-7-yl)-1H-pyrazol-5-yl]urea] | –
7.52 | CC(C)(C)c1cc(NC(=O)Nc2cccc(Cl)c2)n(-c2cccc(C#N)c2)n1 [Example 385, 1-(3-t-butyl-1-(3-cyanophenyl)-1H-pyrazol-5-yl)-3-(3-chlorophenyl)urea] | –
6.60 | COc1cccc(-n2nc(C(C)(C)C)cc2NC(=O)Nc2ccc(C(F)(F)F)cc2)c1 [Example 314, 1-(3-t-butyl-1-(3-methoxyphenyl)-1H-pyrazol-5-yl)-3-(4-(trifluoromethyl)phenyl)urea] | –
– | CC(C)(O)c1cccc(-n2nc(-c3ccccc3)cc2NC(=O)Nc2cccc3ccccc23)c1 [Example 432, 1-{1-[3-(2-hydroxypropan-2-yl)phenyl]-3-phenyl-1H-pyrazol-5-yl}-3-(naphthalen-1-yl)urea] | inhibition at 1 µM [2, 3]: 9%; inhibition at 10 µM [2, 3]: 24%
6.00 | COc1cccc(-n2nc(C(F)(F)F)cc2NC(=O)Nc2cccc3ccccc23)c1 [Example 342, 1-(3-(trifluoromethyl)-1-(3-methoxyphenyl)-1H-pyrazol-5-yl)-3-(naphthalen-1-yl)urea] | –
6.89 | CC(C)(C)c1cc(NC(=O)Nc2ccc3c(c2)OCO3)n(-c2cccc(C#N)c2)n1 [Example 357, 1-(benzo[d][1,3]dioxol-5-yl)-3-(3-t-butyl-1-(3-cyanophenyl)-1H-pyrazol-5-yl)urea] | –
– | CC(C)(C)c1cc(NC(=O)Nc2ccc(Cl)cc2)n(-c2ccc(OCC(=O)O)cc2)n1 [Example 526, 1-(3-t-butyl-1-(4-(carboxymethyl)oxyphenyl)-1H-pyrazol-5-yl)-3-(4-chlorophenyl-1-yl)urea] | inhibition at 0.1 µM [2, 3]: 25%; inhibition at 1 µM [2, 3]: 70%
5.52 | O=C(Nc1ccc(Cl)cc1)Nc1cc(C(F)(F)F)nn1-c1ccc(CO)cc1 [Example 442, 1-(4-chlorophenyl)-3-{3-(trifluoromethyl)-1-[4-(hydroxyl-methyl)phenyl]-1H-pyrazol-5-yl}urea] | –
– | CC(C)c1cc(NC(=O)Nc2cccc3ccccc23)n(-c2cccc(C(C)(C)O)c2)n1 [Example 436, 1-{1-[3-(2-hydroxypropan-2-yl)phenyl]-3-isopropyl-1H-pyrazol-5-yl}-3-(naphthalen-1-yl)urea] | inhibition at 0.1 µM [2, 3]: 16%; inhibition at 1 µM [2, 3]: 41%

SMILES | pIC50 ([2]; Table 3) | other results
CC(C)(C)c1cc(NC(=O)Nc2ccc(Cl)cc2)n(-c2cccc(C#N)c2)n1 [Example 358, 1-(3-t-butyl-1-(3-cyanophenyl)-1H-pyrazol-5-yl)-3-(4-chlorophenyl)urea] | 7.00 | –
CC(C)(C)c1cc(NC(=O)Nc2cccc(Cl)c2)n(-c2cccc(CN)c2)n1 [Example 386, 1-{1-[3-(aminomethyl)phenyl]-3-t-butyl-1H-pyrazol-5-yl}-3-(3-chloro-phenyl)urea] | 6.94 | –
COc1cccc(-n2nc(C(C)(C)C)cc2NC(=O)Nc2ccc([N+](=O)[O-])cc2)c1 [Example 321, 1-(3-t-butyl-1-(3-methoxyphenyl)-1H-pyrazol-5-yl)-3-(4-nitrophenyl)urea] | 6.28 | –
COc1cccc(-n2nc(C(C)(C)C)cc2NC(=O)Nc2ccc(F)cc2)c1 [Example 309, 1-(3-t-butyl-1-(3-methoxyphenyl)-1H-pyrazol-5-yl)-3-(4-fluorophenyl)urea] | 6.52 | –
CC(C)(C)c1cc(NC(=O)Nc2cccc(Cl)c2Cl)n(-c2cccc(C#N)c2)n1 [Example 359] | 7.89 | –
CC(C)(C)c1cc(NC(=O)Nc2cccc(F)c2F)n(-c2ccc(CC(=O)O)cc2)n1 [Example 307, 2-(4-(3-t-butyl-5-(3-(2,3-difluorophenyl)ureido)-1H-pyrazol-1-yl)-phenyl)acetic acid] | 7.31 | –

Source: patent US20070191336A1 (priority 2003, published 2007)
